Measured values as given in paper PMC7915588, “Polyphyllin D Shows Anticancer Effect through a Selective Inhibition of Src Homology Region 2-Containing Protein Tyrosine Phosphatase-2 (SHP2)” (Molecules, 2021).

Key:
PTPN13 (PTP-BAS) = biological target: T1, PTPN13 (PTP-BAS) (Homo sapiens, UniProt Q12923); assay: biochemical; design: Fluorogenic phosphatase assay, DiFMUP hydrolysis by recombinant PTPs, initial velocity, Ex/Em 355/460 nm; settings: read-out: Inhibition by 20 µM polyphyllin D (%)
T1 construct: 2095-2490
T1 sequence (Q12923 whole entry): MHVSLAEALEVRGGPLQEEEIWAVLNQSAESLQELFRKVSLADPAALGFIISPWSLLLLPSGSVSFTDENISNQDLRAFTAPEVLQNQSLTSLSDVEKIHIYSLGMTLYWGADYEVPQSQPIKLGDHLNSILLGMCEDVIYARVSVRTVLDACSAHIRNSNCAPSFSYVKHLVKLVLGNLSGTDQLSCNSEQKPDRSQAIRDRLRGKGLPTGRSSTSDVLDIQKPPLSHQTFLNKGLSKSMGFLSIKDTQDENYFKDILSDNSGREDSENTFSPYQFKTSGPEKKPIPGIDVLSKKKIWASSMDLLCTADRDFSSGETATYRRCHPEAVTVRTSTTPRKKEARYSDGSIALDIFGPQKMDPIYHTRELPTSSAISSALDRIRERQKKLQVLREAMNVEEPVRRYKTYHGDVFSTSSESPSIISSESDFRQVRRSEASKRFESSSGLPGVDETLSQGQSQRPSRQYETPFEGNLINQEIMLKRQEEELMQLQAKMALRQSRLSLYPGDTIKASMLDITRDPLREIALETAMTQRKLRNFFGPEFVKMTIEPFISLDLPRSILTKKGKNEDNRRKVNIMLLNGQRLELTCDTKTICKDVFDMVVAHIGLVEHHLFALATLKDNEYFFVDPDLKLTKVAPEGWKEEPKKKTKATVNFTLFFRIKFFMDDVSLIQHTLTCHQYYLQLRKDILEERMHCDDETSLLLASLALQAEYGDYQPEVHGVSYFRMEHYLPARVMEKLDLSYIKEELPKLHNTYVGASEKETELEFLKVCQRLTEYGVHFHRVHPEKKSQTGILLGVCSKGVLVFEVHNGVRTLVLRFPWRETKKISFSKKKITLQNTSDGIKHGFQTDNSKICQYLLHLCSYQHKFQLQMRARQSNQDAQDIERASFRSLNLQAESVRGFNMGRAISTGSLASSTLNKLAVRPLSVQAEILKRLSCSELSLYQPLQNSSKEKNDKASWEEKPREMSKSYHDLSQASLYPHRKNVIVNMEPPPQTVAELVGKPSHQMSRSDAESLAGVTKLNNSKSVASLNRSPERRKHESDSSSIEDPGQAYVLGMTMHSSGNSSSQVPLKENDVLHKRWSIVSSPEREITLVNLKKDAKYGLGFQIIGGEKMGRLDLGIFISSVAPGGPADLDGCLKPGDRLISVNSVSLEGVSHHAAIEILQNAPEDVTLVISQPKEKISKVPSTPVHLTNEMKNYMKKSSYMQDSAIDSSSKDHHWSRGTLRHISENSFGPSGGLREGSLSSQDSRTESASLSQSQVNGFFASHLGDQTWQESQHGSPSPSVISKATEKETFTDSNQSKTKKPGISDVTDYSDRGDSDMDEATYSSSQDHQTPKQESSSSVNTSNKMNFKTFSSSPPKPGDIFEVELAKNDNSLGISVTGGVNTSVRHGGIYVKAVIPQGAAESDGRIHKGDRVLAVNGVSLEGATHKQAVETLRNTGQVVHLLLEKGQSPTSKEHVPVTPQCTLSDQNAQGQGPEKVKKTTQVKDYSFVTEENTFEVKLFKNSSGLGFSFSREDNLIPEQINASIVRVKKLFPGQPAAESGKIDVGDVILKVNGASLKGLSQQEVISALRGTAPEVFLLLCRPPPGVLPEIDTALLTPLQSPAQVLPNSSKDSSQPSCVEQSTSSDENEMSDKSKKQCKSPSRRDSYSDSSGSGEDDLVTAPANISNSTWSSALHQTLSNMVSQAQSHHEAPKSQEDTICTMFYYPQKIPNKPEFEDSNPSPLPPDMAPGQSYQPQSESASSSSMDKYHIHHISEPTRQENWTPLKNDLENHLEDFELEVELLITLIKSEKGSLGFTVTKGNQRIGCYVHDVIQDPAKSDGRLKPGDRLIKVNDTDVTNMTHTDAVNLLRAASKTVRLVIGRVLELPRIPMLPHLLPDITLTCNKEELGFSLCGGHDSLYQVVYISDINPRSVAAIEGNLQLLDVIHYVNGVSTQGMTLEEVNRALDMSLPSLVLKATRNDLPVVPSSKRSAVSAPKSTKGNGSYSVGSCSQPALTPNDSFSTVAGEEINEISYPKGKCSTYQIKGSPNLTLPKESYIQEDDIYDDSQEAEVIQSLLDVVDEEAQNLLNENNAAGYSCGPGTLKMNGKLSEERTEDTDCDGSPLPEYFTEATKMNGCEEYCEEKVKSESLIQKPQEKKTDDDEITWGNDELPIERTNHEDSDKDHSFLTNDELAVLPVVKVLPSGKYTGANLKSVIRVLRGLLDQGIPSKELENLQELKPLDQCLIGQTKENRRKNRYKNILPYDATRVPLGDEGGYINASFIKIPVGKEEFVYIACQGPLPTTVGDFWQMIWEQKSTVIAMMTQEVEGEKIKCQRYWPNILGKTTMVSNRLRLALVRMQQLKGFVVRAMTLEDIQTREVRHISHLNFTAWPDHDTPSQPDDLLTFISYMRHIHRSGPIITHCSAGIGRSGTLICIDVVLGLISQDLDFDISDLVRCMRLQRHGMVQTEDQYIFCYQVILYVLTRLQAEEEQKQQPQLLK
Experimental: (§1) Enzymatic reactions were initiated by the addition of SHP2 (final concentration of 10 nM) to a solution of each of the 658 phytochemical compounds (final concentration of 20 µM) in reaction buffer (20 mM bis-tris pH 6.0, 150 mM NaCl, 2.5 mM dithiothreitol, and 0.01% Triton X-100) containing DiFMUP (final concentration of 140 µM). Changes in the fluorescence intensities were measured continuously for 10 min at Ex/Em = 355/460 nm on a VictorTM X4 multilabel plate reader. Enzyme inhibition was estimated by comparing the reaction velocity in the presence of each compound with that in the absence of any compound. Inhibition of the other PTPs was measured in the same way. Next, we established a screening strategy using a DiFMUP substrate to identify a natural product that inhibits SHP2 activity. Initially, we screened 658 compounds at 20 µM using a 96-well plate system (Figure 2A). […] The selected compounds were tested at 20 µM for SHP2 inhibition, and 14 additional non-receptor-type PTPs (PTP1B, TCPTP, PTPH1, STEP, SHP1, HePTP, PTP-MEG2, PTP-PEST, PTP-BAS, PTP36, PTP-HSCF, PTPD1, LYP, and HD-PTP) were used to investigate the inhibition selectivity. The results were visualized using a heat map analysis by GraphPad Prism (Figure 2B and Table S2 in Supplementary Materials). To identify new SHP2 anticancer natural products, we first performed cloning to express SHP2 protein and then purified it. PTPN11 (Gene ID: 5781) encoding human SHP2 (amino acids sequences 1 to 526) with several extra amino acids were cloned into the MBP-pET 28a (+) vector, which was successfully used to overexpress PTPs with enhanced solubility in an Escherichia coli expression system. Information on amino acids for 15 non-receptor-type PTPs including SHP2 is summarized in Table S3 in the Supplementary Materials. SHP2 was overexpressed in RosettaTM (DE3) and purified using a metal affinity resin (Figure S1 in Supplementary Materials). […] The kcat, KM, and kcat/KM values were determined to be 270 min^−1, 70 μM, and 3.9 μM^−1min^−1, respectively, using the Lineweaver–Burk plot analysis (Table S1 in Supplementary Materials).

SHP2 [1] = biological target: T2, SHP2 (Homo sapiens, UniProt Q06124); assay: biochemical; design: Fluorogenic phosphatase assay, DiFMUP hydrolysis by recombinant PTPs, initial velocity, Ex/Em 355/460 nm; settings: read-out: Inhibition by 20 µM polyphyllin D (%)
T2 construct: gene PTPN11
T2 sequence (Q06124 1-526): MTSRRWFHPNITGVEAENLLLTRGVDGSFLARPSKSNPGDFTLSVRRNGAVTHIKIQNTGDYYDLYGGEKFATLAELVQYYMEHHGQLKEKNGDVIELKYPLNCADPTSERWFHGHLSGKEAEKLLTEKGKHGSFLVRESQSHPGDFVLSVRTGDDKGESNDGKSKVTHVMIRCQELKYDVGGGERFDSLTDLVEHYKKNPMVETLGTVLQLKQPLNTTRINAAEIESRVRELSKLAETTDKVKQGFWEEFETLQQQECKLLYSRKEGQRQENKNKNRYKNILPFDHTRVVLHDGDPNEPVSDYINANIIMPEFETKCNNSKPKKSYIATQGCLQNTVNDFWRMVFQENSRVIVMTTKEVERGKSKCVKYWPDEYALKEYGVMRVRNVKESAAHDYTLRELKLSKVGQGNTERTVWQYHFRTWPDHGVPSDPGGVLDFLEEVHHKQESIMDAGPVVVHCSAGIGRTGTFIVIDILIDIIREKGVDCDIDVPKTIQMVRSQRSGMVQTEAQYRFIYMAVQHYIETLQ
Experimental: as §1

PTPN9 (PTP-MEG2) = biological target: T3, PTPN9 (PTP-MEG2) (Homo sapiens, UniProt P43378); assay: biochemical; design: Fluorogenic phosphatase assay, DiFMUP hydrolysis by recombinant PTPs, initial velocity, Ex/Em 355/460 nm; settings: read-out: Inhibition by 20 µM polyphyllin D (%)
T3 construct: 277-582
T3 sequence (P43378 1-593): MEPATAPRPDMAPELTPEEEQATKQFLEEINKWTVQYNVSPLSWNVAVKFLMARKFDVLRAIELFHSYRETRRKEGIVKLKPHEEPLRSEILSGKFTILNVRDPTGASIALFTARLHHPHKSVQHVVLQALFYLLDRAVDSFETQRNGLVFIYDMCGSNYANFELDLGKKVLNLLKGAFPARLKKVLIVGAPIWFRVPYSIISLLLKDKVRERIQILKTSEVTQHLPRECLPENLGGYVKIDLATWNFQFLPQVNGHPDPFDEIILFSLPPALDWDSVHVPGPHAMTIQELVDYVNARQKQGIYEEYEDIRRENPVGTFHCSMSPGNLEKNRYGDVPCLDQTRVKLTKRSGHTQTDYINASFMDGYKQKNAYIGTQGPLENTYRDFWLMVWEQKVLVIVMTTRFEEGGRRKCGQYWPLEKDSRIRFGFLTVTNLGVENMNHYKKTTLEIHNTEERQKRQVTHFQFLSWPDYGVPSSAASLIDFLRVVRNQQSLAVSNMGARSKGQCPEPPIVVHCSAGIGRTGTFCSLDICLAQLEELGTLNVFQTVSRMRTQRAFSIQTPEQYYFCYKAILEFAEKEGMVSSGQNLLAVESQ
Experimental: as §1

PTPN7 (HePTP) = biological target: T4, PTPN7 (HePTP) (Homo sapiens, UniProt P35236); assay: biochemical; design: Fluorogenic phosphatase assay, DiFMUP hydrolysis by recombinant PTPs, initial velocity, Ex/Em 355/460 nm; settings: read-out: Inhibition by 20 µM polyphyllin D (%)
T4 construct: 1-360
T4 sequence (P35236 1-360): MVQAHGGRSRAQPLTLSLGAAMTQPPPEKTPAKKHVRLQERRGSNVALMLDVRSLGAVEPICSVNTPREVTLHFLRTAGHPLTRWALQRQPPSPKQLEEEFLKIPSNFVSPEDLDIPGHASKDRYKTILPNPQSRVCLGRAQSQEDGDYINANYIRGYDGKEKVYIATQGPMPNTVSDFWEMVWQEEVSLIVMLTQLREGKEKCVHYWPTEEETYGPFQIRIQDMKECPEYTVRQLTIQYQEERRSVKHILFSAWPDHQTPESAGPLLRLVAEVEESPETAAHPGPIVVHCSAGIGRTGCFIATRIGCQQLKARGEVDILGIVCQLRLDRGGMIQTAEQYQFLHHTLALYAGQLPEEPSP
Experimental: as §1

SHP2 [2] = biological target: T2, SHP2; assay: DiFMUP fluorogenic phosphatase assay, dose-response and Hill plot; type: biochemical

Work on `C[C@@H]1CC[C@@]2(OC1)O[C@H]1C[C@H]3[C@@H]4CC=C5C[C@@H](O[C@@H]6O[C@H](CO)[C@@H](O[C@@H]7O[C@@H](CO)[C@H](O)[C@H]7O)[C@H](O)[C@H]6O[C@@H]6O[C@@H](C)[C@H](O)[C@@H](O)[C@H]6O)CC[C@]5(C)[C@H]4CC[C@]3(C)[C@H]1[C@@H]2C` [polyphyllin D] yielded an inhibition at 20 µM (PTPN13 (PTP-BAS)) of 0%, an inhibition at 20 µM (SHP2 [1]) of 85.6% and an inhibition at 20 µM (PTPN9 (PTP-MEG2)) of 0%. The inhibition at 20 µM (PTPN7 (HePTP)) was 9.2% and the IC50 (SHP2 [2]) was 15.3 µM.
